These are literature values, as cited in patent US10946011B2 (Martin Pharmaceuticals Inc., priority 2018, dated 2021).

As for `OCC(CO)(CO)NCCCNC(CO)(CO)CO` [BIS-Tris Propane], the PKa is 6.80.
